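The compound was tested at five concentrations on cells cultured in 96-well plates, with a 48-hour exposure period. Here, GI50 denotes the concentration required for 50% inhibition of growth. Definition used: TGI = concentration required for complete inhibition of growth.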
Tests used:
Experiment in all cases: NCI-60 cell line screen, 48 h
SK-MEL-2 melanoma = test system: SK-MEL-2 melanoma
SK-MEL-28 melanoma = test system: SK-MEL-28 melanoma
786-0 renal = test system: 786-0 renal
HOP-92 NSCLC = test system: HOP-92 NSCLC
IGROV1 ovarian = test system: IGROV1 ovarian
RXF 393 renal = test system: RXF 393 renal
M14 melanoma = test system: M14 melanoma
SK-OV-3 ovarian = test system: SK-OV-3 ovarian
COLO 205 colon = test system: COLO 205 colon
NCI/ADR-RES ovarian = test system: NCI/ADR-RES ovarian

SMILES | TGI (SK-MEL-2 melanoma) | TGI (SK-MEL-28 melanoma) | TGI (786-0 renal) | TGI (HOP-92 NSCLC) | TGI (IGROV1 ovarian) | TGI (RXF 393 renal) | TGI (M14 melanoma) | TGI (SK-OV-3 ovarian) | TGI (COLO 205 colon) | GI50 (SK-MEL-28 melanoma) | GI50 (786-0 renal) | GI50 (IGROV1 ovarian) | GI50 (RXF 393 renal) | GI50 (M14 melanoma) | GI50 (SK-OV-3 ovarian) | GI50 (COLO 205 colon) | TGI (NCI/ADR-RES ovarian) | GI50 (HOP-92 NSCLC) | GI50 (SK-MEL-2 melanoma)
NCP(=O)(O)OCC(=O)O | > 100 µM | > 100 µM | > 100 µM | > 100 µM | > 100 µM | > 100 µM | > 100 µM | > 100 µM | > 100 µM | – | – | – | – | – | – | – | – | – | –
Cn1ccnc1C[N-]Cc1nccn1C.O=[N+]([O-])[O-].O=[N+]([O-])[O-].[Cu+2] | – | > 100 µM | > 100 µM | – | > 100 µM | > 100 µM | > 100 µM | > 100 µM | > 100 µM | > 100 µM | > 100 µM | > 100 µM | > 100 µM | > 100 µM | > 100 µM | > 100 µM | – | – | –
Cc1cc(O)c(C(c2ccncc2)c2c(O)cc(C)[nH]c2=O)c(=O)[nH]1 | – | > 100 µM | > 100 µM | – | > 100 µM | > 100 µM | > 100 µM | > 100 µM | > 100 µM | – | – | – | – | – | – | – | > 100 µM | – | –
CC(=O)CC(=O)/C=C/c1cccs1 | > 100 µM | – | > 100 µM | – | > 100 µM | – | > 100 µM | > 100 µM | > 100 µM | – | – | – | – | – | – | – | – | – | –
COC(=O)C1CC(C(=O)OC)c2nc3cc(C)c(C)cc3nc21 (stereo not given) | > 100 µM | > 100 µM | > 100 µM | > 100 µM | > 100 µM | – | > 100 µM | > 100 µM | > 100 µM | – | – | – | – | – | – | – | – | – | –
CN(C)CCNc1nc(-c2cccs2)cc(-c2cccs2)n1 | 32.9 µM | 30 µM | 30.4 µM | 8.7 µM | 69.2 µM | 28.6 µM | 27 µM | – | 27.9 µM | – | – | – | – | – | – | – | – | – | –
CCc1nc(-n2c(-c3ccccc3)nc3ccccc3c2=O)nc(N)c1-c1ccc(Cl)cc1 | – | > 100 µM | > 100 µM | > 100 µM | > 100 µM | > 100 µM | > 100 µM | – | > 100 µM | > 100 µM | 5.64 µM | 27.1 µM | > 100 µM | 6.22 µM | – | 14.2 µM | – | 13.4 µM | –
COc1ccc2nc3cccc(C(=O)NCCN(C)C)c3nc2c1 | 3.68 µM | 4.88 µM | > 22.2 µM | > 100 µM | > 48.2 µM | 3.21 µM | – | > 28 µM | > 24.3 µM | – | – | – | – | – | – | – | – | – | –
C1C[OH+]CC[OH+]CC[OH+]CC[OH+]CC[OH+]CC[OH+]1.[Cl-].[Nb+5] | > 100 µM | > 100 µM | > 100 µM | > 100 µM | > 100 µM | > 100 µM | > 100 µM | > 100 µM | > 100 µM | > 100 µM | > 100 µM | > 100 µM | 85.3 µM | > 100 µM | > 100 µM | > 100 µM | – | > 100 µM | > 100 µM
Cc1ccc(NC(=O)CCC(=O)C(C#N)c2ccccc2)cc1C (stereo not given) | > 100 µM | – | > 100 µM | > 100 µM | > 100 µM | – | > 100 µM | > 100 µM | > 100 µM | – | – | – | – | – | – | – | – | – | –
CC(=O)O[C@H]1C=CC23OC(=O)[C@]1(C)[C@H]2[C@H](C(=O)O)C12CC(=O)[C@@](CO)(CC[C@H]13)C2 | > 100 µM | > 100 µM | > 100 µM | > 100 µM | > 100 µM | > 100 µM | > 100 µM | > 100 µM | > 100 µM | – | – | – | – | – | – | – | – | – | –
NC(=O)N/N=C(/c1nc2ccc([N+](=O)[O-])cc2[nH]c1=O)C(O)c1ccco1 (stereo not given) | – | > 100 µM | > 100 µM | > 100 µM | > 100 µM | > 100 µM | > 100 µM | > 100 µM | > 100 µM | – | – | – | – | – | – | – | – | – | –
COc1cc([C@@H]2c3cc4c(cc3C[C@H]3COC(=O)[C@@H]32)OCO4)cc2c1OCO2 | < 0.01 µM | > 100 µM | > 59.8 µM | – | 0.048 µM | > 100 µM | > 100 µM | > 100 µM | 0.0149 µM | – | – | – | – | – | – | – | < 0.01 µM | – | –
CCOC(=O)/N=c1/nc(N(C)C)ss1 | > 100 µM | > 100 µM | > 100 µM | > 100 µM | > 100 µM | > 100 µM | > 100 µM | > 100 µM | – | – | – | – | – | – | – | – | – | – | –
NS(=O)(=O)c1ccc(NC(=O)COC(=O)c2cccc3c(=O)c4ccccc4[nH]c23)cc1 | 69.8 µM | > 100 µM | 45.3 µM | 38.6 µM | 61.5 µM | 42.3 µM | > 100 µM | 43.3 µM | > 100 µM | – | – | – | – | – | – | – | – | – | –
COc1ccc2c(c1)OCCC1=C2SCC2(C)CCN=C12 (stereo not given) | – | > 100 µM | > 100 µM | – | > 100 µM | > 100 µM | > 100 µM | > 100 µM | > 100 µM | – | – | – | – | – | – | – | – | – | –

Reference: PubChem BioAssay (NCI)
